Laboratory results taken from US20170029451A1, “BRANCHED CHAIN ACYCLIC NUCLEOSIDE PHOSPHONATE ESTERS AND METHODS OF SYNTHESIS AND USES THEREOF” (CHIMERIX, INC., priority 2013, published 2017).

Tests used:
[1] = CellTiter-Glo cytotoxicity assay in Akata cells; conditions: human
[2] = tested on: Herpes Simplex Virus 1 (Strain E-377); experiment: Plaque reduction assay, HSV-1 in human foreskin fibroblast cells; format: cell-based; conditions: Human alphaherpesvirus 1; Strain E-377, human foreskin fibroblast cells
[3] = Cytotoxicity in BCBL-1 cells; format: cell-based; conditions: human, cell line BCBL-1 (HHV-8 row)
Experimental: Cell viability in all assays with lymphocytes was assessed with the CellTiter-Glo Luminescent Cell Viability Assay (Promega). Briefly, assay plates were incubated at ambient temperature for 30 min then 50 µl of CellTiter-Glo reagent was added to each well and the plates were mixed for 2 min on an orbital shaker to lyse the cells. Plates were then incubated for an additional 10 min at ambient temperature and the luminescence was quantified on a luminometer. Standard methods were used to calculate drug concentrations that inhibited the proliferation of Akata, HSB-2, BCLB-1, or Molt-3 cells by 50% (CC50).

[4] = tested on: Influenza virus A/CA/10/2009; experiment: microbe, parasite or virus in culture; format: cell-based; conditions: unidentified influenza virus, MDCK, read-out: A/CA/10/2009 (EC50, μM)
[5] = Cytotoxicity in MEF cells; format: cell-based; conditions: mouse, cell line MEF (MCMV row)
[6] = tested on: Epstein-Barr virus; experiment: DNA Hybridization Assay for EBV in Akata cells; format: cell-based; conditions: human gammaherpesvirus 4, read-out: Efficacy DNA Hybridization Assay (EC50)
Experimental: Akata cells latently infected with EBV were obtained from John Sixbey. The GS strain of HHV-6A was obtained through the NIH AIDS Research and Reference Reagent Program.
Each experiment that evaluated the antiviral activity of the compounds included both positive and negative control compounds to ensure the performance of each assay. Concurrent assessment of cytotoxicity was also performed for each study at equivalent levels of compound exposure. When sufficient material was available, multiple assays were performed for each compound evaluation to obtain statistical data.
Assays for EBV were performed in Akata cells that were induced to undergo a lytic infection with 50 μg/ml of a goat anti-human IgG antibody by standard methods. Experimental compounds were diluted in round bottom 96-well plates to yield concentrations ranging from 20 to 0.016 μM. Akata cells were added to the plates at a concentration of 4×10^4 cells per well and incubated for 72 h. For HHV-6 assays, compounds were serially diluted in 96-well plates then 1×10^4 uninfected HSB-2 or Molt-3 cells were added to each well. Infection was initiated by adding HHV-6A infected HSB-2 cells, or HHV-6B infected Molt-3 cells, at a ratio of approximately 1 infected cell for every 10 uninfected HSB-2 cells or Molt-3 cells respectively and incubated for 7 d at 37° C. […]

[7] = tested on: human foreskin fibroblast cells; experiment: Neutral red cytotoxicity assay in human foreskin fibroblast cells; conditions: read-out: VACV CC50, μm, parallel to VACV assay (second printing of Table 4)
[8] = Cytotoxicity (CC50) in MRC-5 cells; format: cell-based; conditions: human, cell line MRC5 (HCMV row)
Experimental: Costar 96-well tissue culture plates were seeded with 20,000 MRC-5 cells (ATCC)/well in EMEM (ATCC, Cat 30-2003) containing 2% Hyclone Standard Fetal Bovine Serum (FBS, Cat 5H30088.03) and 1% Hyclone Penicillin and Streptomycin (Cat SV30010). Outer wells were not used to minimize the edge-effect produced by extended incubations. Serial dilutions of test compounds were added to the cells and plates were incubated for 7 days at 37° C. in 5% CO2. After 7 days of incubation 40 μL of Cell Titer 96® Aqueous MTS Reagent (Promega, G111) was added as directed by manufacturer to the 200 iut media in each well and incubated at 37° C. until the untreated-cell controls developed an 490 nm absorbance between 1.1 and 1.8. The final absorbance readings were read using a BioTek Synergy 2, and Gen 5 software (BioTek Instruments, Inc.) was used to calculate the concentration which inhibited MRC-5 cells by 50% (CC50).

[9] = in vitro; conditions: human
[10] = tested on: HCMV UL54 resistant mutant D542E (HDP-CDV^R); experiment: microbe, parasite or virus in culture; format: cell-based, Human Cytomegalovirus (HCMV)

CC(C)CCCCCCCCCCCCCCOCCCOP(=O)(O)COC(CO)Cn1ccc(=O)[nH]c1=O (stereo not shown) [Compound 12]
CC50 [1]: 18 µM | EC50 [2]: > 50 µM | CC50 [3]: > 10 µM | EC50 [4]: > 4 µM | CC50 [5]: 60 µM | EC50 [6]: > 10 µM | CC50 [7]: > 10 µM | CC50 at 7 days [8]: 50 µM | CC50 [9]: > 20 µM | CC50 ([9]; CC50 (μM)): 36.9 µM | EC50 ([10]; Human betaherpesvirus 5, Fibroblast, read-out: EC50 μM, Virus D542E (HDP-CDV^R), human foreskin fibroblast cells): ~5.41 µM | EC90 ([10]; Human betaherpesvirus 5, Fibroblast, read-out: EC90 μM): > 10 µM | efficacy on UL54 HCMV resistant variants ([10]; effect of mutations in UL54 which reduce efficacy for HDP-CDV): reduced
